From patent US11860174B2, “Anti-cannabidiol antibody and uses thereof” (BOMI, LLC, priority 2017, dated 2024)

Molecular target: T1, human CB2 receptors (Homo sapiens, UniProt P34972)
T1 construct: expressed in transfected cells; host or cells: CHO cells (membrane fraction)
Test: CHO-CB2 radioligand displacement binding (filtration)
Conditions: membranes of CB2 cells, Cheng & Prusoff, n = 3 or 4
Procedure: CHO cells and membrane preparation. These were stably transfected with cDNA encoding human CB2 receptors. […] Cells were maintained at 37° C. and 5% CO2 in DMEM (f-12 HAM) with 2 mm Glutamine, Geneticin (600 μg ml−1) and Hygromycin (300 μg ml−1). […] CHO cells were suspended in 50 mm Tris buffer (pH 7.4) and 0.32 m sucrose and homogenized with an Ultra-Turrex homogenizer. The homogenate was diluted with 50 mm Tris buffer (pH 7.4) and centrifuged at 50,000×g for 1 hour to isolate the membranes.
CHO—CB2 binding. […] Binding was initiated by the addition of cell membranes (20-30 μg protein). Assays were carried out at 30° C. for 90 minutes before termination by addition of ice-cold wash buffer (50 mm Tris buffer, 1 mg ml−1 BSA) and vacuum filtration using a 12-well sampling manifold (Brandel Cell Harvester) and Whatman GF/B glass-fibre filters that had been soaked in wash buffer at 4° C. for 24 hours. Each reaction tube was washed three times with a 4 ml aliquot of buffer. The filters were oven-dried for 60 minutes and then placed in 5 ml of scintillation fluid (Ultima Gold XR, Packard). Radioactivity was quantified by liquid scintillation spectrometry. Specific binding was defined as the difference between the binding that occurred in the presence and absence of 1 μm reference cannabidiol. Protein assays were performed using a Bio-Rad Dc kit. […] […] Competitive binding curves were fitted with minimum values for displacement of radio ligand from specific binding sites constrained to zero.
Additionally, binding of an MCA, described herein, was tested for this reference sample. The resulting displacement and binding values were used as a reference standard against which 26 CBD samples (acquired from Natural Hemp Solutions, Atlanta Ga.) were compared.

[1] = labelled cannabinoid [3H]-CP55940

T1 sequence (P34972 whole entry): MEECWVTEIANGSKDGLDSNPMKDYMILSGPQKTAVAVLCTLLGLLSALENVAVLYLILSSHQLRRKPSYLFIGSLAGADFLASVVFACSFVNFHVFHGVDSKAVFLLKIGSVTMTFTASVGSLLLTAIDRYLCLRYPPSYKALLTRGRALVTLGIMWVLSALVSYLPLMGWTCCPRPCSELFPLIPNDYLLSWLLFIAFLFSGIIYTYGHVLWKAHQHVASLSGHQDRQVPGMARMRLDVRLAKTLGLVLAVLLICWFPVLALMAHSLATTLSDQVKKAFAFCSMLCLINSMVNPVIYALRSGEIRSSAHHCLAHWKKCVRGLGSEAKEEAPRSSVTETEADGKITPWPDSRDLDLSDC

For `C=C1CC[C@@H]2[C@@H](C1)c1c(OC)cc(C(C)(C)CCCCCC)cc1OC2(C)C` [Sample L759656], the Ki [1] was 11.8 ± 2.5 nM.
`CCCCCCC(C)(C)c1cc(OC)c2c(c1)OC(C)(C)[C@@H]1CC=C(C)C[C@@H]21` [Sample L759633] gave a Ki [1] of 6.4 ± 2.2 nM.
For `COc1ccc(C(=O)c2c(C)n(CCN3CCOCC3)c3cc(I)ccc23)cc1` [AM630], the Ki [1] was 31.2 ± 12.4 nM and the Ki (labelled cannabinoid [3H]-W1N55212-2) was 37.5 ± 15.4 nM.
